Molecular target: T1, HIV integrase (Human immunodeficiency virus type 1 group M subtype B, UniProt P12497, F1332H)
T1 construct: HIV integrase full length gene; made in house; host or cells: Escherichia coli BL21(DE3)
Test: Determination of enzyme (HIV integrase) inhibitory activity
Type: biochemical, HIV (Human Immunodeficiency Virus (type 1))
Details: recombinant integrase protein (F185H), strand transfer plate assay, absorbance at 450 nm
Description: The following explains evaluation methods of the HIV integrase inhibitory activity of the compound of the present invention.
(i) Construction of Recombinant Integrase Gene Expression System
HIV integrase full length gene (J. Virol., 67, 425-437 (1993)) in which phenylalanine at codon 185 was substituted by histidine, was inserted between the restriction enzyme NdeI and XhoI sites of plasmid pET21a(+) (Novagen), whereby an integrase expression vector pET21a-IN-F185H was constructed.
(ii) Production and Purification of Integrase Protein
Escherichia coli recombinant BL21(DE3) transformed with plasmid pET21a-IN-F185H obtained in (i) was shake cultured at 30° C. in a liquid medium containing ampicillin. When the culture reached the logarithmic growth phase, isopropyl-β-D-thiogalactopyranoside was added to promote expression of integrase gene. The culture was continued for 3 hr to promote accumulation of the integrase protein. The recombinant E. coli was collected in pellets by centrifugal separation and preserved at −80° C.
The E. coli was suspended in Lysis buffer ([…] HEPES (pH 7.5), 5 mM DTT, 10 mM CHAPS, 10% glycerol) containing 1M sodium chloride and subjected to repeat pressurization and depressurization for rupture, and centrifugal separation at 4° C., 40,000×g, 60 min to recover a water-soluble fraction (supernatant). This was diluted 10-fold with Lysis buffer free of sodium chloride, mixed with SP-Sepharose (GE healthcare Bioscience) and stirred at 4° C. for 60 min to allow adsorption of integrase protein to the resin. The resin was washed with Lysis buffer containing 100 mM sodium chloride and the integrase protein was eluted with Lysis buffer containing 1M sodium chloride.
The eluted integrase protein solution was subjected to a Superdex 75 (GE healthcare Bioscience) column for gel filtration. The protein was eluted with Lysis buffer containing 1M sodium chloride.
The obtained fractions of the integrase protein were collected and preserved at −80° C.
(iii) Preparation of DNA Solution
The following DNA synthesized by Greiner or FASMAC was dissolved in TE buffer (10 mM Tris-hydrochloric acid (pH 8.0), 1 mM EDTA) and mixed with donor DNA, target DNA, and each complementary strand (+ and − strands) to 1 μM. The mixture was heated at 95° C. for 5 min, 80° C. for 10 min, 70° C. for 10 min, 60° C. for 10 min, 50° C. for 10 min and 40° C. for 10 min and kept at 25° C. to give a double stranded DNA, which was used for the test.
(iv) Determination of Enzyme (HIV Integrase) Inhibitory Activity
The donor DNA was diluted with TE buffer to 10 nM (or 5 nM), of which 50 μl was added to each well of streptavidin-coated microtiter plate (Roche) and allowed to adsorb at 37° C. for 60 min. The plate was washed with phosphate buffer (Dulbecco's PBS, Sanko Junyaku Co., Ltd.) containing 0.1% Tween 20 and phosphate buffer. Then, an enzyme reaction mixture (70 μl), a test substance (10 μl) diluted with the enzyme reaction mixture and 100 μg/ml (or 64 μg/ml (2 μM)) integrase protein (10 μl) were added to each well and reacted at 37° C. for 60 min.
Composition of the enzyme reaction mixture: 30 mM MOPS (3-morpholinopropanesulfonic acid), 5 mM magnesium chloride, 3 mM DTT (dithiothreitol), 0.1 mg/ml BSA (bovine serum albumin), 5% glycerol, 10% DMSO (dimethyl sulfoxide), 0.01% Tween 20.
Then, 50 nM (or 25 nM) target DNA (10 μl) was added, reacted at 37° C. for 10 min and washed with phosphate buffer containing 0.1% Tween 20 to stop the reaction.
Then, 100 mU/ml peroxidase labeled anti-digoxigenin antibody solution (Roche, 100 μl) was added, and the mixture was reacted at 37° C. for 60 min, followed by washing with phosphate buffer containing 0.1% Tween 20.
A peroxidase color solution (Bio Rad, 100 μl) was added and allowed to react at room temperature for 4 min (or 3 min). The color reaction was stopped by adding IN sulfuric acid (100 μl). The absorbance at 450 nm was measured. […]

`CCOC[C@@H](CO)n1cc(C(=O)O)c(=O)c2cc(Cc3cc(N4CCOCC4)cc(Cl)c3F)c(CC)cc21` [Example 1, 6-[3-chloro-2-fluoro-5-(morpholin-4-yl)benzyl]-1-((R)-1-ethoxymethyl-2-hydroxyethyl)-7-ethyl-4-oxo-1,4-dihydroquinoline-3-carboxylic acid] gave an IC50 of under 10 nM.
In the case of `COc1cc2c(cc1Cc1cc(N3CCCC3=O)cc(Cl)c1F)c(=O)c(C(=O)O)cn2[C@H](CO)C(C)C` [Example 2, 6-[3-chloro-2-fluoro-5-(2-oxopyrrolidin-1-yl)benzyl]-1-((S)-1-hydroxymethyl-2-methylpropyl)-7-methoxy-4-oxo-1,4-dihydroquinoline-3-carboxylic acid], the IC50 is reported as under 10 nM.
With `COc1cc2c(cc1Cc1cc(N3CCCC3)cc(Cl)c1F)c(=O)c(C(=O)O)cn2[C@H](CO)C(C)C` [Example 3, 6-[3-chloro-2-fluoro-5-(pyrrolidin-1-yl)benzyl]-1-((S)-1-hydroxymethyl-2-methylpropyl)-7-methoxy-4-oxo-1,4-dihydroquinoline-3-carboxylic acid] the IC50 was under 10 nM.
`COc1cc2c(cc1Cc1cc(N3CCOC3=O)cc(Cl)c1F)c(=O)c(C(=O)O)cn2[C@H](CO)C(C)C` [Example 4, 6-[3-chloro-2-fluoro-5-(2-oxooxazolidin-3-yl)benzyl]-1-((S)-1-hydroxymethyl-2-methylpropyl)-7-methoxy-4-oxo-1,4-dihydroquinoline-3-carboxylic acid] was tested, and the IC50 was under 10 nM.
Work on `COc1cc2c(cc1Cc1cc(N3CCOCC3)cc(Cl)c1F)c(=O)c(C(=O)O)cn2[C@H](CO)C(C)C` [Example 5, 6-[3-chloro-2-fluoro-5-(morpholin-4-yl)benzyl]-1-((S)-1-hydroxymethyl-2-methylpropyl)-7-methoxy-4-oxo-1,4-dihydroquinoline-3-carboxylic acid] yielded an IC50 of under 10 nM.
`COc1cc2c(cc1Cc1cc(N3CCCCC3)cc(Cl)c1F)c(=O)c(C(=O)O)cn2[C@H](CO)C(C)C` [Example 6, 6-[3-chloro-2-fluoro-5-(piperidin-1-yl)benzyl]-1-((S)-1-hydroxymethyl-2-methylpropyl)-7-methoxy-4-oxo-1,4-dihydroquinoline-3-carboxylic acid] showed an IC50 of under 10 nM.
Compound `COc1cc2c(cc1Cc1cc(N3CCCCC3=O)cc(Cl)c1F)c(=O)c(C(=O)O)cn2[C@H](CO)C(C)C` [Example 7, 6-[3-chloro-2-fluoro-5-(2-oxopiperidin-1-yl)benzyl]-1-((S)-1-hydroxymethyl-2-methylpropyl)-7-methoxy-4-oxo-1,4-dihydroquinoline-3-carboxylic acid] has an IC50 of under 10 nM.
Work on `COc1cc2c(cc1Cc1cc(N3CC[C@@H](O)C3)cc(Cl)c1F)c(=O)c(C(=O)O)cn2[C@H](CO)C(C)C` [Example 8, 6-[3-chloro-2-fluoro-5-((R)-3-hydroxypyrrolidin-1-yl)benzyl]-1-((S)-1-hydroxymethyl-2-methylpropyl)-7-methoxy-4-oxo-1,4-dihydroquinoline-3-carboxylic acid] yielded an IC50 of under 10 nM.
Compound `COc1cc2c(cc1Cc1cc(N3CC[C@H](O)C3)cc(Cl)c1F)c(=O)c(C(=O)O)cn2[C@H](CO)C(C)C` [Example 9, 6-[3-chloro-2-fluoro-5-((S)-3-hydroxypyrrolidin-1-yl)benzyl]-1-((S)-1-hydroxymethyl-2-methylpropyl)-7-methoxy-4-oxo-1,4-dihydroquinoline-3-carboxylic acid] has an IC50 of under 10 nM.
Work on `COc1cc2c(cc1Cc1cc(N3CCC(=O)N3C)cc(Cl)c1F)c(=O)c(C(=O)O)cn2[C@H](CO)C(C)C` [Example 10, 6-[3-chloro-2-fluoro-5-(2-methyl-3-oxopyrazolidin-1-yl)benzyl]-1-((S)-1-hydroxymethyl-2-methylpropyl)-7-methoxy-4-oxo-1,4-dihydroquinoline-3-carboxylic acid] yielded an IC50 of under 10 nM.
`COc1cc2c(cc1Cc1cc(N3CCN(C(C)=O)CC3)cc(Cl)c1F)c(=O)c(C(=O)O)cn2[C@H](CO)C(C)C` [Example 11, 6-[5-(4-acetylpiperazin-1-yl)-3-chloro-2-fluorobenzyl]-1-((S)-1-hydroxymethyl-2-methylpropyl)-7-methoxy-4-oxo-1,4-dihydroquinoline-3-carboxylic acid] was tested, and the IC50 was under 10 nM.
With `COc1cc2c(cc1Cc1cc(N3CCC(F)(F)C3)cc(Cl)c1F)c(=O)c(C(=O)O)cn2[C@H](CO)C(C)C` [Example 12, 6-[3-chloro-5-(3,3-difluoropyrrolidin-1-yl)-2-fluorobenzyl]-1-((S)-1-hydroxymethyl-2-methylpropyl)-7-methoxy-4-oxo-1,4-dihydroquinoline-3-carboxylic acid] the IC50 was under 10 nM.
`COc1cc2c(cc1Cc1cc(N3CC[C@@H](F)C3)cc(Cl)c1F)c(=O)c(C(=O)O)cn2[C@H](CO)C(C)C` [Example 13, 6-[3-chloro-2-fluoro-5-((R)-3-fluoropyrrolidin-1-yl)benzyl]-1-((S)-1-hydroxymethyl-2-methylpropyl)-7-methoxy-4-oxo-1,4-dihydroquinoline-3-carboxylic acid] gave an IC50 of under 10 nM.
`COc1cc2c(cc1Cc1cc(N3CC[C@H](F)C3)cc(Cl)c1F)c(=O)c(C(=O)O)cn2[C@H](CO)C(C)C` [Example 14, 6-[3-chloro-2-fluoro-5-((S)-3-fluoropyrrolidin-1-yl)benzyl]-1-((S)-1-hydroxymethyl-2-methylpropyl)-7-methoxy-4-oxo-1,4-dihydroquinoline-3-carboxylic acid] gave an IC50 of under 10 nM.
`COc1cc2c(cc1Cc1cc(N3CCOCC3)cc(Cl)c1F)c(=O)c(C(=O)O)cn2[C@H](CO)[C@@H](C)OC` [Example 15, 6-[3-chloro-2-fluoro-5-(morpholin-4-yl)benzyl]-1-((1R,2R)-1-hydroxymethyl-2-methoxypropyl)-7-methoxy-4-oxo-1,4-dihydroquinoline-3-carboxylic acid] showed an IC50 of under 10 nM.
Work on `COc1cc2c(cc1Cc1cc(N3CCOCC3)c(F)c(Cl)c1F)c(=O)c(C(=O)O)cn2[C@H](CO)C(C)C` [Example 16, 6-[3-chloro-2,4-difluoro-5-(morpholin-4-yl)benzyl]-1-((S)-1-hydroxymethyl-2-methylpropyl)-7-methoxy-4-oxo-1,4-dihydroquinoline-3-carboxylic acid] yielded an IC50 of under 10 nM.
`COc1cc2c(cc1Cc1cc(N3CCOCC3)cc(Cl)c1F)c(=O)c(C(=O)O)cn2[C@H](CO)C(C)(C)C` [Example 17, 6-[3-chloro-2-fluoro-5-(morpholin-4-yl)benzyl]-1-((S)-1-hydroxymethyl-2,2-dimethylpropyl)-7-methoxy-4-oxo-1,4-dihydroquinoline-3-carboxylic acid] was tested, and the IC50 was under 10 nM.
Work on `CCc1cc2c(cc1Cc1cc(N3CCOCC3)cc(Cl)c1F)c(=O)c(C(=O)O)cn2[C@H](CO)C(C)(C)C` [Example 18, 6-[3-chloro-2-fluoro-5-(morpholin-4-yl)benzyl]-7-ethyl-1-((S)-1-hydroxymethyl-2,2-dimethylpropyl)-4-oxo-1,4-dihydroquinoline-3-carboxylic acid] yielded an IC50 of under 10 nM.
For `CCOC[C@@H](CO)n1cc(C(=O)O)c(=O)c2cc(Cc3cc(N4CCOCC4)cc(Cl)c3F)c(OC)cc21` [Example 19, 6-[3-chloro-2-fluoro-5-(morpholin-4-yl)benzyl]-1-((R)-1-ethoxymethyl-2-hydroxyethyl)-7-methoxy-4-oxo-1,4-dihydroquinoline-3-carboxylic acid], the IC50 was under 10 nM.

— patent publication US7872004B2, “6-(heterocyclyl-substituted benzyl)-4-oxoquinoline compound and use thereof as HIV integrase inhibitor” (Japan Tobacco Inc., priority 2006, dated 2011)
